Laboratory results taken from patent US20240400549A1, “COMPOUNDS AND THEIR USES FOR TREATING NEURODEGENERATIVE DISEASE” (Academia Sinica, priority 2021, published 2024).
Peptide text beside a SMILES is read from it. * marks the point of attachment. Cbz = O=C(OCc1ccccc1)*

How the values were obtained:
109Q-HTTEX1 = molecular target: T1, 109Q-HTTEX1 (Homo sapiens, UniProt P42858); experiment: Western blot of polyQ-expanded huntingtin (109Q-HTTEX1) in transfected Neuro-2a cells; type: cell-based; conditions: 5 μM, 24 h
T1 construct: the polyQ-expanded N terminus of HTT translated from the exon 1 of human huntingtin gene; expressed in transfected cells; host or cells: Neuro-2a (mouse neuroblastoma)
Method: (§1) Mouse neuroblastoma cell line (Neuro-2a) were cultured in Dulbecco's modified Eagle's medium (DMEM; Gibco) containing 2×10^−3 M glutamine, 10% heat inactivated fetal bovine serum (FBS), and 100 U mL^−1 penicillin-streptomycin (Gibco) at 37° C. in a humidified incubator containing 5% CO2. Alternatively, Neuro-2a cells were cultured in Dulbecco's modified Eagle's medium (DMEM; Invitrogen, Carlsbad, CA, USA) supplemented with 10% heat-inactivated FBS. The cells were incubated in a humidified incubator at 37° C. with 10% CO2. Transfection was performed using T-Pro NTR II (Ji-Feng Biotechnology, Taiwan) following the manufacturer's protocol.
(§2) Alternatively, cells were lysed with RIPA lysis buffer (150 mM sodium chloride, 1% Nonidet P-40, 0.5% sodium deoxycholate, 0.1% SDS, and 50 mM Tris-HCl, pH 8.0) containing 1× protease inhibitor cocktail and 1× phosphatase inhibitor cocktail to prepare total lysates, which were rotated at 4° C. for 1 h. Protein concentrations were determined with a Bio-Rad protein assay kit (Bio-Rad, Hercules, CA, USA). Protein samples were separated on 8-10% SDS-PAGE gels and electrophoretically transferred onto PVDF membranes (Millipore, Billerica, MA, USA). The membranes were incubated overnight at 4° C. with the following primary antibodies: anti-GAPDH (GeneTex; GTX627408), anti-HTT (Habel; a custom antibody raised against protein translated from the exon 1 of HTT (designated HTTEX1), anti-pTau (MC1, a generous gift from Dr. Peter Davies, the Feinstein Institute for Medical Research, New York, USA), and anti-VCP (BD, East Rutherford, NJ, USA). Immunoreactive bands were detected by enhanced chemiluminescence (ECL; Millipore) and recorded using the UVP ChemiDoc-It Imaging System (Upland, CA, USA).
In this example, the effect of the present compound on huntingtin (HTT) protein (a protein known to cause Huntington's disease) was investigated. To this purpose, Neuro-2a cells were transiently transfected with pcDNA3-109Q-HTTEX1 (i.e., the polyQ-expanded N terminus of HTT translated from the exon 1 of human huntingtin gene (designated 109Q-HTTEX1)) and then exposed to the indicated compound (5 μM) for additional 24 h. Total protein lysates were harvested for Western blot analyses, and results are depicted in FIG. 3.

[1] = molecular target: T2, pathogenic tau protein (pTau) (Homo sapiens, UniProt P10636, P618L); experiment: Western blot of pathogenic tau protein (pTau) in SH-SY5Y-Tau-P301L cells; type: cell-based; conditions: 5 μM, 24 h, doxycycline-induced SH-SY5Y-Tau-P301L cells
T2 construct: expressed in transfected cells; host or cells: SH-SY5Y-Tau-P301L (doxycycline-inducible)
Method: The SH-SY5Y-Tau-P301L cell line (SY5Y-Tau) were cultured in DMEM supplemented with 10% FBS and incubated in a humidified incubator at 37° C. with 5% CO2. To induce the expression of pathogenic Tau (pTau), SY5Y-Tau cells were seeded at 1×10^5/60-mm plate, cultured for 2-3 days to reach 70% confluence, and treated with doxycycline (1 μg/mL) for 24 hr to induce the expression of pTau.
as §2
Hyperphosphorylated tau protein is a major hallmark of Alzheimer's disease and many other neurological disorders (including Huntington's disease). To investigate the effects of the compounds of formula (I) or formula (II) on the pathogenic tau protein (designated pTau), SH-SY5Y-Tau-P301L cells were treated with doxycycline (1 μg/mL) (which induced the expression of pathogenic tau protein (pTau), and the indicated compound (5 μM) for 24 h. Total protein lysates were then harvested and analyzed by Western blot analyses. Results are illustrated in FIG. 4.

Neuro-2a cells = experiment: Cytotoxicity of compounds in Neuro-2a cells; type: cell-based, mouse; conditions: for cytotoxicity as compared to that of compound II-1d: 5 or 10 μM concentration, Neuro-2a cells
eGFP-C-TDP-43 aggregates = molecular target: T3, eGFP-C-TDP-43 aggregates (Homo sapiens, UniProt Q13148); experiment: Filter trap assay of insoluble eGFP-C-TDP-43 aggregates in transfected Neuro-2a cells; type: cell-based, mouse; conditions: 5 μM
T3 construct: expressed in transfected cells; host or cells: Neuro-2a (mouse neuroblastoma)
Method: as §1
Neuro-2a cells were seeded in a 6-well plate at a concentration of 2×10^5 cells/well and incubated overnight. Once the cells were attached, Neuro-2a cells were transfected with the eGFP-C-TDP-43 plasmid (2.2 μg) using Turbofect transfection reagent (Invitrogen) and treated with or without 5 μM test compound after 2 h transfection. After incubation for another 22 h, the transfected cells were harvested by RIPA buffer containing protease inhibitor (Roche) and sonicated on ice for 10 seconds. Extracts were centrifuged at 14000 rpm for 10 min at 4° C., followed by measurement of protein concentration using a bicinchoninic acid (BCA) assay. […] Aggregated eGFP-C-TDP-43 protein trapped by the CA membranes was determined by immunoblotting. […]
In this example, the effect of the present compound on C-TDP-43 aggregates was investigated. To this purpose, the eGFP-TDP-43208-414 (hereafter referred as eGFP-C-TDP-43) expressed Neuro-2a cells were first treated with tested compound (e.g., any one of the compounds of formula (I) or (II), then, cells were lysed and the insoluble eGFP-C-TDP43 aggregates were quantified by use of filter trap assay as described in the “Materials and Methods” section; for comparison, slot blot assay was also performed by using the nitrocellulose (NC) membrane for the loading control. Results are depicted in FIG. 1.

[2] = tested on: YFP—C-TDP-43 transgenic C. elegans; experiment: Swimming (thrashing) body bend assay of YFP-C-TDP-43 transgenic C. elegans; type: in vivo; conditions: YFP—C-TDP-43 C. elegans, swimming in buffer
Method: The YFP—C-TDP-43 transgenic strains of C. elegans generated in this study were IW33 [Psnb-l:C-TDP-43219-414-YFP (iwIs22)]. The strains of nematodes were maintained with standard procedure and grown at 20° C. as previously described (Zhang, T. et al. Hum. Mol. Genet. 2011, 20 (10), 1952). For all assays, the transgenic young two-day (80 hours) adults were used. For larvae synchronization, the eggs were isolated by lysing gravid adult worms with freshly prepared bleaching solution (0.5 mL 5 M NaOH with 1 mL bleach) and incubated in S buffer (recipe) for overnight. For drug treatments, compound I-1b and/or DMSO were solely or along with MG132 applied to fresh NGM plates prior to installing the synchronized C. elegans. The body bends of the corresponding treatment in a duration of 30 seconds of the various strains were documented through SMZ800N stereomicroscope equipped with a CCD camera (Nikon). A body bend was counted as the head of C. elegans travels across the mid-body in 1×PBS buffer. Then, the bending videos of C. elegans were analyzed by ImageJ with the wrMTrck plugin (Nussbaum-Krammer, C. I. et al. J. Vis. Exp. 2015, (95), 52321). […]
As YFP—C-TDP-43 readily forms cytosolic aggregates in nervous system, the YFP—C-TDP-43 aggregates both in the neuron processes and neuron bodies of the ventral cord were monitored. […]

T1 sequence (P42858 with tags, fused parts or gaps): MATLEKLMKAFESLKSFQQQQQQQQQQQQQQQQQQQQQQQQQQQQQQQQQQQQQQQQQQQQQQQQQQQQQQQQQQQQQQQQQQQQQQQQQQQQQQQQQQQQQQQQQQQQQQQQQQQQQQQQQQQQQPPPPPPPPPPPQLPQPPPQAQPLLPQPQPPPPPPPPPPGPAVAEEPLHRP
T3 sequence (Q13148 208-414 limits assumed): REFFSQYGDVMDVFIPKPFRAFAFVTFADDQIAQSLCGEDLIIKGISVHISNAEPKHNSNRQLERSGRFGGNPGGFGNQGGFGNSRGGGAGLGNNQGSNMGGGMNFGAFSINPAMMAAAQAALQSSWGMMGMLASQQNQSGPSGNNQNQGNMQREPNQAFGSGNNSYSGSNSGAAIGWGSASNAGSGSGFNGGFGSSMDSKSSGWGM
T2 sequence (P10636 1-441 isoform P10636-8 P301L): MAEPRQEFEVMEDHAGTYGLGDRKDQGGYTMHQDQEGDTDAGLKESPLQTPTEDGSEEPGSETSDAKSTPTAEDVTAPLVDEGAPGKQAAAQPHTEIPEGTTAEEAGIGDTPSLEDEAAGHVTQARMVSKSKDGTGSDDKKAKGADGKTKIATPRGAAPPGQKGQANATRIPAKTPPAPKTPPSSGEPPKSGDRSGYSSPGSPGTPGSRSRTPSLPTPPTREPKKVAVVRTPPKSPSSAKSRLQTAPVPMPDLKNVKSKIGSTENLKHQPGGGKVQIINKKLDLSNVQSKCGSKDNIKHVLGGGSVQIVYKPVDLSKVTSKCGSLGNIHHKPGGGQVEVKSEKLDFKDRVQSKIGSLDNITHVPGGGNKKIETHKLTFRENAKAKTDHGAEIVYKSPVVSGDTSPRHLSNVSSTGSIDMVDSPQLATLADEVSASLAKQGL

Row | reduction of the expression of 109Q-HTTEX1 (109Q-HTTEX1) | reduction of the expressed level of pTau [1] | level of C-TDP-43 aggregate as compared to the control group (eGFP-C-TDP-43 aggregates) | Compound | also measured
1 | approximately 50% | approximately 40% |  | CN(C)c1ccc(-c2nc3ccc(OCCOCCOCCOCCOCCNc4cccc5c4C(=O)N(C4CCC(=O)NC4=O)C5=O)cc3s2)cc1 (stereo not drawn) [I-1d, 4-((14-((2-(4-(dimethylamino)phenyl)benzo[d]thiazol-6-yl)oxy)-3,6,9,12-tetraoxatetradecyl)amino)-2-(2,6-dioxopiperidin-3-yl)isoindoline-1,3-dione] | 
2 | 20% |  | significantly reduce | CNc1ccc(/C=C/c2ccc(OCCOCCOCCNc3cccc4c3C(=O)N(C3CCC(=O)NC3=O)C4=O)nc2)cc1 (stereo not drawn) [II-1b, (E)-2-(2,6-dioxopiperidin-3-yl)-4-((2-(2-(2-((5-(4-(methylamino)styryl)pyridin-2-yl)oxy)ethoxy)ethoxy)ethyl)amino)isoindoline-1,3-dione] | cytotoxicity as compared to that of compound II-1d (Neuro-2a cells): less cytotoxicity; reduction of the expressed level of pTau ([1]; listed as IT-1b): negligible effect
3 |  |  | significantly reduce | CNc1ccc(/C=C/c2ccc(OCCCCCCCCCCNc3cccc4c3C(=O)N(C3CCC(=O)NC3=O)C4=O)nc2)cc1 (stereo not drawn) [II-2d, (E)-2-(2,6-dioxopiperidin-3-yl)-4-((10-((5-(4-(methylamino)styryl)pyridin-2-yl)oxy)decyl)amino)isoindoline-1,3-dione] | cytotoxicity as compared to that of compound II-1d (Neuro-2a cells): lower toxicity
4 | approximately 50% | approximately 40% |  | CN(C)c1ccc(-c2nc3ccc(OCCOCCOCCOCCNc4cccc5c4C(=O)N(C4CCC(=O)NC4=O)C5=O)cc3s2)cc1 (stereo not drawn) [I-1c, 4-((2-(2-(2-(2-((2-(4-(dimethylamino)phenyl)benzo[d]thiazol-6yl)oxy)ethoxy)ethoxy)ethoxy)ethyl)amino)-2-(2,6-dioxopiperidin-3-yl)isoindoline-1,3-dione] | 
5 | approximately 50% | approximately 40% | significantly reduce | CNc1ccc(/C=C/c2ccc(OCCOCCOCCNc3cccc4c3C(=O)N(C3CCC(=O)NC3=O)C4=O)nc2)cc1 (stereo not drawn) [II-1d, (E)-2-(2,6-dioxopiperidin-3-yl)-4-((2-(2-(2-((5-(4-(methylamino)styryl)pyridin-2-yl)oxy)ethoxy)ethoxy)ethyl)amino)isoindoline-1,3-dione] | 
6 |  |  |  | CN(C)c1ccc(-c2nc3ccc(OCCOCCNc4cccc5c4C(=O)N(C4CCC(=O)NC4=O)C5=O)cc3s2)cc1 (stereo not drawn) [I-1a, 4-((2-(2-((2-(4-(dimethylamino)phenyl)benzo[d]thiazol-6-yl)oxy)ethoxy)ethyl)amino)-2-(2,6-dioxopiperidin-3-yl)isoindoline-1,3-dione] | cytotoxicity comparing to mock group of Neuro-2a cells (Neuro-2a cells; 5 μM concentration): neglectable cytotoxicity
7 |  |  |  | CC(C)C[C@@H](C=O)NC(=O)[C@H](CC(C)C)NC(=O)[C@H](CC(C)C)NC(=O)OCc1ccccc1 [MG132, reference compound] (Cbz-Leu-Leu-Leu-aldehyde) | bending frequency (in words) [2]: slow bending frequency
